According to patent US20250134917A1, “COMPOSITIONS AND METHODS OF REGENERATING HEART TISSUES WITH AMINOGLYCOSIDES” (The Board of Regents of The University of Texas System, priority 2022, published 2025):

Key:
[1] = system: Meis1 transcriptional activity; assay: Meis1 luciferase transcriptional activity assay in NRVMs; type: cell-based, rat; settings: 10-500 nM, compared to control (PBS for neomycin, paromomycin; DMSO for rutin, hesperidin)
Source text: (§1) S1: HOXB13 DNA binding domain, S2: Meis1 DNA binding domain, and S3: Interacting interface between Meis1 and HOXB13 (PDB ID: 5EGO). […] Data are mean±s.e.m.; unpaired two-sided t-test. * P<0.05, ** P<0.01, *** P<0.001.

[2] = system: HOXB13 transcriptional activity; assay: HOXB13 luciferase transcriptional activity assay in NRVMs; type: cell-based, rat; settings: 10-500 nM, compared to control (PBS for neomycin, paromomycin; DMSO for rutin, hesperidin)
Source text: as §1

[3] = system: cardiomyocytes in the adult heart; assay: Cardiomyocyte proliferation in adult mice with no injury stimuli; type: in vivo, mouse
Procedure: In another exemplary method, cardiomyocyte proliferation in mice was assessed in the presence of paromomycin and paromomycin-neomycin. Based on the data resulting from the in vitro screening coupled and luciferase transcription activity assays detailed in the exemplary methods herein, paromomycin was initially selected to study its capacity to prolong cardiomyocytes proliferation in adult mice with no injury stimuli. The effect of paromomycin (Paro) (200 mg/kg/day, i.p.) and paromomycin-neomycin (Paro/Neo) combo (300 mg/kg/day, i.p.) was assessed after 2 weeks of injection on cell proliferation indices, cytokinesis, cardiomyocyte cell size, isolated cardiac cell count, and nucleation on the isolated cardiomyocytes in the adult heart (FIG. 3A, FIG. 4F). […] Animals. Mice were housed in a 12:12 h light: dark cycle in a temperature-controlled room with free access to water and food. Littermate controls were used whenever possible. Both male and female mice were used on age-matched and gender-matched mice. No statistical methods were used to predetermine sample size. All surgeries and echocardiographic studies were carried out blinded to the genotype of the mice during the experiments and outcome assessments. CD1 mice (Charles River Laboratories) were used for drug-tested studies. Drug administration. Tamoxifen (Sigma) was prepared by dissolving in sesame oil (Sigma) to a concentration of 10 mg ml^-1. For the MADM clonal analysis, 14 consecutive injections of tamoxifen were administered, and mice were euthanized 2 weeks after the last injection. For injection of Paromomycin and Neomycin, mice were administered twice daily. Mice were euthanized at the same time of day to limit circadian variability. Immunofluorescence staining. Heart cryosections were equilibrated with antigen retrieval buffer with 1 mM EDTA or epitope retrieval buffer (IHC World). Samples were permeabilized and blocked with 0.3% Triton X-100 and 10% serum from the host animal of secondary antibodies in PBS for 20 minutes at room temperature. Then, samples were incubated overnight at 4° C. with the primary antibodies. After three washes with PBS, samples were incubated for 1 hour at room temperature with corresponding fluorescence secondary antibodies conjugated to Alexa Fluor 488 or 555 (Invitrogen) at 1:400. The slides were mounted in Vectashield Antifade Mounting Medium (Vector Laboratories). Slides were viewed under Nikon fluorescence or Zeiss LSM 510 confocal microscopes. Primary antibodies used: phospho histone […] (EMD Millipore, 06-570; 1:100), aurora B kinase (Sigma, A5102; 1:25) to analyse cell cycle re-entry; troponin T, cardiac isoform Ab-1, clone 13-11 (Thermo Scientific, MS-295-P1; 1:200), sarcomeric α-actinin (Abcam, ab68167; 1:200) to identify cardiomyocytes. DAPI or Hoechst was used for nuclear staining. Images were obtained using a Nikon Eclipse Ni or Nikon A1 laser scanning confocal microscopes. WGA staining and cardiomyocyte size quantification. WGA staining and quantification was performed as previously described. In brief, the slides were incubated with WGA conjugated to Alexa Fluor 488 ([…], Life Technologies) for 1 hour at room temperature following washing with PBS. To quantify the cross-sectional cell size, three to five independent hearts per group with three different views and positions, each from left and right ventricles, and septum were captured at 40× magnification. ImageJ was used to quantify the size of cardiomyocytes that were round and contained a nucleus. At least 500 cells per sample were quantified. Cardiomyocyte isolation. Adult hearts were freshly collected and fixed in 4% paraformaldehyde at 4° C. overnight. The hearts were minced to smaller pieces and subsequently incubated with collagenase D (2.4 mg ml^-1, Roche) and B (1.8 mg ml^-1, Roche) for 12 h at 37° C. using an end-over-end shaker. The supernatants were collected via 160-μm nylon mesh filter, and the procedure was repeated until no more cardiomyocytes were dissociated from the tissue. […]

[4] = system: cardiomyocytes of neonatal heart; assay: Cardiomyocyte proliferation in neonatal CD-1 mice; type: in vivo, mouse; settings: 300 mg/kg, i.p from p1 till p14, compared with controls
Procedure: Paromomycin-neomycin was administered to neonatal CD-1 mice at 300 mg/kg, i.p from p1 till p14. Hearts were collected for histological analysis (FIG. 4A).
Immunofluorescence staining. Heart cryosections were equilibrated with antigen retrieval buffer with 1 mM EDTA or epitope retrieval buffer (IHC World). Samples were permeabilized and blocked with 0.3% Triton X-100 and 10% serum from the host animal of secondary antibodies in PBS for 20 minutes at room temperature. Then, samples were incubated overnight at 4° C. with the primary antibodies. After three washes with PBS, samples were incubated for 1 hour at room temperature with corresponding fluorescence secondary antibodies conjugated to Alexa Fluor 488 or 555 (Invitrogen) at 1:400. The slides were mounted in Vectashield Antifade Mounting Medium (Vector Laboratories). Slides were viewed under Nikon fluorescence or Zeiss LSM 510 confocal microscopes. Primary antibodies used: phospho histone H3 Ser10 (EMD Millipore, 06-570; 1:100), aurora B kinase (Sigma, A5102; 1:25) to analyse cell cycle re-entry; troponin T, cardiac isoform Ab-1, clone 13-11 (Thermo Scientific, MS-295-P1; 1:200), sarcomeric α-actinin (Abcam, ab68167; 1:200) to identify cardiomyocytes. DAPI or Hoechst was used for nuclear staining. Images were obtained using a Nikon Eclipse Ni or Nikon A1 laser scanning confocal microscopes.

[5] = system: mouse adult heart after myocardial infarction (MI); assay: Cardiac repair after myocardial infarction (LAD ligation) in adult mice; type: in vivo
Procedure: In another exemplary method, the ability of the aminoglycosides on cardiac repair and heart regeneration was assessed in the mouse adult heart after following myocardial infarction (MI). MI was induced in adult mice by permanent ligation of the proximal left anterior descending coronary artery. This was followed by examining the expression of cell cycle inhibitors two weeks after MI (one week after drug(s) injection) by western blot analysis. […] Meanwhile, MI was induced to monitor the pharmacodynamics of the administered drug(s) to improve cardiac function and promote heart regeneration for 8-weeks (FIG. 5A). One week after injury, paromomycin and paromomycin-neomycin combo (200 mg/kg/day, i.p.) was administered while assessment of left ventricular ejection fraction (LVEF) by echocardiography was performed 1-week post-surgery, 1 week after drug(s) administration and every 2 weeks thereafter until 8 weeks post-surgery. Murine model of MI. Induction of adult anterior wall MI was performed as similar to the methods described in Nguyen et al., Nature (2020) 582, 271-276, the disclosure of which is incorporated herein in its entirety. In brief, three-month-old mice were subjected to MI by ligation of the proximal aspect of the LAD coronary artery. Mice were anaesthetized in an airtight chamber using 4% isoflurane, endotracheally intubated, and ventilated using a volume-control ventilator with 100% O2, supplemented with 2% vaporized isoflurane (Harvard Apparatus). Following lateral thoracotomy and pericardiectomy, the LAD coronary artery was identified along the anterior wall of the LV. Prolene sutures (6-0 non-absorbable) was used to ligate the LAD. Proper occlusion of the LAD artery was noted by three criteria: immediate blanching of the LV anterior wall myocardium below the ligature, echocardiographic assessment 7 days post-surgery showing an ejection fraction in the range of 45-65%, and histological analysis. Vicryl sutures (6-0 absorbable) were used to close the thoracic cavity. Drugs administrated one week after MI. Mice were subjected to echocardiography at serial time points and then euthanized at 3 months after ligation. Hearts were collected and processed for histology and immunohistochemistry. Fibrotic scar size was measured using MIQuant similar to the method described in Nascimento et al., PLOS One (2011) 6, e25045, the disclosure of which is incorporated herein in its entirety. Transthoracic echocardiography. Assessment of in vivo heart function on conscious, non-sedated mice was performed using a Vevo2100 micro-ultrasound system, M[…] probe (VisualSonics) at baseline, 1 week after injury, 1 week after drug administration, and 4, 8, 12 and 16 weeks after occlusion. Echocardiographic M-mode images were obtained from a parasternal short-axis view at the level of the papillary muscles. Left ventricular internal diameters at end diastole (LVIDd) and end systole (LVIDs) were measured from M-mode recordings. Six representative contraction cycles were selected for analysis, and average indexes (LVIDd, LVIDs and fractional shortening) were calculated for each mouse. All echocardiography measurements were performed in a blinded manner. Histology. Hearts were collected and fixed in 4% paraformaldehyde in PBS overnight at 4° C. and then processed for either paraffin or cryo embedding. […] Protein concentration was quantified using Pierce BCA protein assay kit (Pierce Biotechnology), with three biological replicates. […]

HOXB13 = target: T1, HOXB13 (Mus musculus, UniProt P70321); assay: Thermal shift assay on purified HOXB13 DBD; type: binding
T1 construct: made in house; host or cells: E. coli Rosetta (DE3) pLysS
T1 sequence (P70321 218-277 limits assumed): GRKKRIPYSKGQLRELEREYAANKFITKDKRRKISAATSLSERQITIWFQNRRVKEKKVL
Procedure: In another exemplary method, thermal shift analysis of aminoglycosides towards Meis1 and HOXB13 was performed. Initially, […] binding domains (DBDs) of Meis1 and HOXB13 were cloned, expressed, and purified to conduct the thermal shift assay (FIGS. 2A-2B). […] Protein Expression and Purification. mMeis1 and mHoxb13 were subcloned into pETDuet vector with noncleavable N-terminal 6×His tag and transformed into Rosetta (DE3) pLysS cells (Novagen). Target protein were expressed in cultures grown in autoinduction media at 18° C. overnight. The culture was harvested and sonicated in lysis buffer (20 mM Tris [pH=8.0], 1 M NaCl, 0.5 mM DTT, and supplemented with protease inhibitors). […] The eluate was concentrated and purified by gel filtration chromatography. The peak fractions were collected and concentrated to about . . . 0 mg/mL for crystallization screening.

[6] = adult CD-1 mice, i.p., 2 weeks, paromomycin 200 mg/kg, paromomycin-neomycin 300 mg/kg, Anti-Cnx43/DAPI, compared with controls
[7] = adult mice, i.p., 2 weeks, Paro 200 mg/kg/day, Paro/Neo combo 300 mg/kg/day, compared to control
[8] = adult mice, i.p., 2 weeks, Paro 200 mg/kg/day, Paro/Neo combo 300 mg/kg/day, compared to control-treated mice
[9] = two weeks after MI (one week after drug(s) injection)

Row | Molecule | luciferase transcriptional activity for Meis1 [1] | luciferase transcriptional activity for HOXB13 [2] | RFP+ and GFP+ single-labelled daughter cardiomyocytes ([3]; Mosaic Analysis with Double Markers (MADM) mice, lineage tracing, compared to control-treated mice) | bi- and multi-nucleation of isolated cardiomyocytes [3, 6] | mono-nucleation of isolated cardiomyocytes [3, 6] | cardiomyocytes cell size via wheat germ agglutinin (WGA) staining [3, 7] | cardiomyocytes undergoing cytokinesis via Aurkb+ staining [3, 7] | number of cardiomyocytes following dissociation of the heart by collagenase digestion ([3]; adult mice, i.p., 2 weeks, Paro 200 mg/kg/day, Paro/Neo combo 300 mg/kg/day, compared to control-treated hearts) | heart weight (HW)/body weight (BW) ratio [3, 8] | pH3+ cardiomyocytes (mitosis marker) [3, 8] | cardiomyocyte cytokinesis marker (AurkB and anti-cTnT co-immunostaining) [4] | cardiomyocyte mitosis marker (anti-pH3 and anti-cTnT co-immunostaining) [4] | left ventricular ejection fraction (LVEF) by echocardiography ([5]; 8 weeks post-surgery, drug i.p. from one week after injury, compared to control-treated mice) | wet to dry lung ratio ([5]; MI mouse model, Paromomycin 200 mg/kg, i.p., Paromomycin-Neomycin 300 mg/kg, 8 weeks, compared to controls) | fibrotic scar (size) ([5]; histological analysis, 8 weeks post-MI, compared to control-treated hearts) | p15/16 proteins (cell cycle inhibitor), western blot [5, 9] | p21 protein (cell cycle inhibitor), western blot [5, 9] | change in the melting temperature of HOXB13 (HOXB13)
1 | COc1ccc([C@@H]2CC(=O)c3c(O)cc(O[C@@H]4O[C@H](CO[C@@H]5O[C@@H](C)[C@H](O)[C@@H](O)[C@H]5O)[C@@H](O)[C@H](O)[C@H]4O)cc3O2)cc1O [Hesperidin, hesperidin] | poor inhibitory profile | poor inhibitory profile |  |  |  |  |  |  |  |  |  |  |  |  |  |  |  | 
2 | NC[C@@H]1O[C@H](O[C@H]2[C@@H](O)[C@H](O[C@@H]3[C@@H](O)[C@H](N)C[C@H](N)[C@H]3O[C@H]3O[C@H](CO)[C@@H](O)[C@H](O)[C@H]3N)O[C@@H]2CO)[C@H](N)[C@@H](O)[C@@H]1O [Paromomycin, paromomycin] | significant downregulation | significant downregulation | significant increased | significant decrease | significant increase | significant reduction | significant increase | significantly higher number | no significant difference | significant increase | significant increase | significant increase | maintain the LVEF | significant decrease | trending decline | decrease | decrease | 
3 | neomycin | significant downregulation | significant downregulation |  |  |  |  |  |  |  |  |  |  |  |  |  |  |  | noticeable change
